Earlier results on one molecule are cited in patent publication US8227637B2, “Stable, water-soluble near infrared dyes” (Epolin, Inc., priority 2008, dated 2012).

The conditions of the series: SbF6 salt of U.S. Pat. No. 3,709,830, statement in background.

On to `OCCN(CCO)c1ccc([N+](=C2C=CC(=[N+](c3ccc(N(CCO)CCO)cc3)c3ccc(N(CCO)CCO)cc3)C=C2)c2ccc(N(CCO)CCO)cc2)cc1.[F][Sb-]([F])([F])([F])([F])[F].[F][Sb-]([F])([F])([F])([F])[F]` [N,N′,N″,N′″-tetrakis(4-[di(2-hydroxyethyl)amino]-phenyl)-p-benzoquinonebis(imoniumhexafluoro-antimonate)], for which the water solubility entry is on record as “not water-soluble”.
